Read-outs that look alike come from different tables or passages of the source.
Assays:
[1] = biological target: BRD4 (BD1+BD2) bromodomain (Homo sapiens (Human), UniProt O60885); assay: BRD4 binding inhibition (AlphaScreen, GST-BRD4 vs tetraacetylated histone H4 peptide)
Procedure, shortened: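 GST-BRD4 (BD1+BD2) and biotinylated tetraacetyl-histone H4 peptide, each at 100 nM in HEPES pH 7.4 buffer with BSA and DTT, were combined with compound. Glutathione acceptor and streptavidin donor beads were added, then incubated 30 min at room temperature in the dark. Read-out was AlphaScreen signal.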

[2] = test system: acute myelogenous leukemia cells (MV-4-11 cells); assay: Cytotoxicity to acute myelogenous leukemia cells (MV-4-11 cells), CCK-8; details: Homo sapiens, MV4-11, 72 h
[3] = GST-BRD4 (BD1+BD2) vs biotinylated acetyl-histone H4 peptide, AlphaScreen, read-out: BRD4 IC50
[4] = read-out: MV-4-11 Cytotoxicity IC50
[5] = GST-BRD4 (BD1+BD2) / biotinylated acetyl-histone H4 (Lys5,8,12,16) peptide, read-out: IC50, BRD4 binding inhibition
[6] = read-out: IC50, cytotoxicity against acute myelogenous leukemia cells

## Cc1nnc2c(NCCCCNC(=O)[C@H](O)C(C)C)nc3cc(N4C[C@@H](C)O[C@@H](C)C4)ccc3n12 [Example 512, N-{4-[7-(2,6-dimethyl-morpholine-4-yl)-1-methyl-[1,2,4]triazolo[4,3-a]quinoxaline-4-ylamino]-butyl}-2-(R)-hydroxy-3-methyl-butyramide]
[1]; [3]
  IC50: 0.065 µM
[2]; [4]
  IC50: 0.631 µM

## CCOc1ccc2c(c1)nc(NCCCCNC(=O)OC(C)(C)C)c1nnc(C)n12 [Example 440, [4-(7-ethoxy-1-methyl-[1,2,4]triazolo[4,3-a]quinoxaline-4-ylamino)-butyl]-carbamic acid-tert-butylester]
[1]; [5]
  IC50: ≤ 0.01 µM
[1]; [3]
  IC50: 0.009 µM
[2]; [4]
  IC50: 0.58 µM

## COc1ccc2c(c1)nc(NCCCCNC(=O)[C@H](O)C(C)C)c1nnc(C)n12 [Example 298, 2-(R)-hydroxy-N-[4-(7-methoxy-1-methyl-[1,2,4]triazolo[4,3-a]quinoxaline-4-ylamino)-butyl]-3-methyl-butyramide]
[1]; [5]
  IC50: ≤ 0.01 µM
[1]; [3]
  IC50: 0.004 µM
[2]; [4]
  IC50: 0.27 µM

## COc1cc2c(cc1C)nc(NCCCCNC(=O)OCC(C)C)c1nnc(C)n12 [Example 150, [4-(8-methoxy-1,7-dimethyl-[1,2,4]triazolo[4,3-a]quinoxaline-4-ylamino)-butyl]-carbamic acid isobutylester]
[1]; [5]
  IC50: ≤ 0.05 µM
[1]; [3]
  IC50: 0.048 µM
[2]; [4]
  IC50: 0.46 µM

## Cc1nnc2c(NCCCCNC(=O)C(C)(C)C)nc3cc(-c4nc5ccccc5n4C)ccc3n12 [Example 230, 2,2-dimethyl-N-{4-[1-methyl-7-(1-methyl-1H-benzoimidazole-2-yl)-[1,2,4]triazolo[4,3-a]quinoxaline-4-ylamino]-butyl}-propionamide]
[1]; [5]
  IC50: ≤ 0.05 µM
[1]; [3]
  IC50: 0.013 µM
[2]; [4]
  IC50: 0.58 µM

## CCC(C)C(=O)NCCCCNc1nc2cc(OCCOC)ccc2n2c(C)nnc12 (stereo not drawn) [Example 380, N-{4-[7-(2-methoxy-ethoxy)-1-methyl-[1,2,4]triazolo[4,3-a]quinoxaline-4-ylamino]-butyl}-2-methyl-butyramide]
[1]; [5]
  IC50: ≤ 0.05 µM
[1]; [3]
  IC50: 0.013 µM
[2]; [4]
  IC50: 0.61 µM

## CCC(C)OC(=O)NCCCCNc1nc2cc(OC)c(OC)cc2n2c(C)nnc12 (stereo not drawn) [Example 63, [4-(7,8-dimethoxy-1-methyl-[1,2,4]triazolo[4,3-a]quinoxaline-4-ylamino)-butyl]-carbamic acid-sec-butylester]
[1]; [5]
  IC50: ≤ 0.05 µM
[1]; [3]
  IC50: 0.012 µM
[2]; [6]
  IC50: ≤ 0.2 µM
[2]; [4]
  IC50: 0.07 µM

## COCCOc1ccc2c(c1)nc(NCCCCNC(=O)C(NC(=O)OC(C)(C)C)C(C)C)c1nnc(C)n12 (stereo not drawn) [Example 396, (1-{4-[7-(2-methoxy-ethoxy)-1-methyl-[1,2,4]triazolo[4,3-a]quinoxaline-4-ylamino]-butylcarbamoyl}-2-methyl-propyl)-carbamic acid-tert-butylester]
[1]; [5]
  IC50: ≤ 0.01 µM
[1]; [3]
  IC50: 0.007 µM
[2]; [4]
  IC50: 0.76 µM

## COCCOc1ccc2c(c1)nc(NCCCCNC(=O)CCC1CCCC1)c1nnc(C)n12 [Example 393, 3-cyclopentyl-N-{4-[7-(2-methoxy-ethoxy)-1-methyl-[1,2,4]triazolo[4,3-a]quinoxaline-4-ylamino]-butyl}-propionamide]
[1]; [5]
  IC50: ≤ 0.01 µM
[1]; [3]
  IC50: 0.003 µM
[2]; [6]
  IC50: ≤ 0.2 µM
[2]; [4]
  IC50: 0.17 µM

## Cc1nnc2c(NCCCCNC(=O)OC3CCCC3)nc3cc(OC(C)C)ccc3n12 [Example 453, [4-(7-isopropoxy-1-methyl-[1,2,4]triazolo[4,3-a]quinoxaline-4-ylamino)-butyl]-carbamic acid cyclopentyl ester]
[1]; [5]
  IC50: ≤ 0.05 µM
[1]; [3]
  IC50: 0.024 µM
[2]; [4]
  IC50: 0.5 µM

## COc1cc2nc(NCCCCNC(=O)CC(C)C)c3nnc(C)n3c2cc1NC(=S)NC(C)C [Example 569, N-{4-[8-(3-isopropyl-thioureido)-7-methoxy-1-methyl-[1,2,4]triazolo[4,3-a]quinoxaline-4-ylamino]-butyl}-3-methyl-butyramide]
[1]; [5]
  IC50: ≤ 0.05 µM
[1]; [3]
  IC50: 0.011 µM
[2]; [4]
  IC50: 0.237 µM

## COc1cc2nc(NCCCCNC(=O)c3ccccc3Cl)c3nnc(C)n3c2cc1C [Example 470]
[1]; [3]
  IC50: 0.063 µM
[2]; [4]
  IC50: 0.22 µM
